From patent US9512128B2 (BAYER CROPSCIENCE AG, priority 2012, dated 2016)
Read-outs that look alike come from different tables or passages of the source.

Assays:
[1] = log P by HPLC on reversed-phase columns (C 18), EEC directive 79/831 Annex V.A8; type: physicochemical; settings: for logP[a]: method [a]; for logP[b]: method [b]; for chromatographic logP: reversed-phase C18 HPLC column
Summary of the method: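 Measured by reversed-phase C18 HPLC (LC-MS) with a linear 10→95% acetonitrile gradient. Acidic: pH 2.7, 0.1% formic acid. Neutral: pH 7.8, 0.001 M ammonium bicarbonate.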

[2] = test system: larvae of the mustard beetle (Phaedon cochleariae); test: Phaedon cochleariae spray test (PHAECO); type: in vivo; settings: application rate 500 g/ha, after 7 days, Chinese cabbage leaf discs
Experimental: 2. Phaedon cochleariae Spray Test (PHAECO)
(§1) • Solvents: 78.0 parts by weight of acetone • 1.5 part by weight of dimethylformamide • Emulsifier: 0.5 part by weight of alkylaryl polyglycol ether
(§2) To produce a suitable preparation of active compound, 1 part by weight of active compound is mixed with the stated amounts of solvents and emulsifier, and the concentrate is diluted with emulsifier-containing water to the desired concentration.
After 7 days, the efficacy in % is determined. 100% means that all of the beetle larvae have been killed; 0% means that none of the beetle larvae have been killed.

[3] = test system: southern root-knot nematode (Meloidogyne incognita); test: Meloidogyne incognita test (MELGIN); type: in vivo; settings: application rate 20 ppm, after 14 days, lettuce
Experimental: 5. Meloidogyne incognita Test (MELGIN) • Solvent: 125.0 parts by weight of acetone To prepare a suitable active compound preparation, 1 part by weight of active compound is mixed with the stated amount of solvent and the concentrate is diluted with water to the desired concentration. Vessels are filled with sand, active compound solution, an egg/larvae suspension of the southern root-knot nematode (Meloidogyne incognita) and lettuce seeds. The lettuce seeds germinate and the plants develop. On the roots, galls are formed. After 14 days, the nematicidal effect in % is determined by the formation of galls. 100% means that no galls have been found; 0% means that the number of galls on the treated plants corresponds to the untreated control.

[4] = test system: greenhouse red spider mite (Tetranychus urticae); test: Tetranychus urticae spray test, OP-resistant (TETRUR); type: in vivo; settings: after 6 days, bean leaf discs
Experimental: 4. Tetranychus urticae Spray Test, OP-Resistant (TETRUR)
as §1, §2
Discs of bean leaves (Phaseolus vulgaris) which are infested by all stages of the greenhouse red spider mite (Tetranychus urticae) are sprayed with an active compound preparation of the desired concentration.
After 6 days, the efficacy in % is determined. 100% means that all of the spider mites have been killed; 0% means that none of the spider mites have been killed.

Compound	logP[a] [1]	logP[b] [1]	nematicidal effect in % (formation of galls) [3]	efficacy in % (spider mites killed) ([4]; application rate 500 g/ha)	further results
Cc1nn(C)c2ncn(-c3ccc(C#N)c(SCC(F)(F)F)c3)c(=O)c12 [Compound 34]	2.30	2.24	–	–	efficacy in % (beetle larvae killed) [2]: 100%
CCc1noc2ncn(-c3cc([S+]([O-])CC(F)(F)F)c(C)cc3F)c(=O)c12 (stereo not drawn) [Compound 198]	–	–	100%	90%	–
Cc1nn(C)c2ncn(-c3ccc(Cl)c([S+]([O-])CC(F)(F)F)c3)c(=O)c12 (stereo not drawn) [Compound 37]	2.01	1.98	80%	90%	–
Cc1cc(F)c(-n2cnc3snc(C)c3c2=O)cc1SCC(F)(F)F [Compound 202]	–	–	90%	90%	–
CC(C)(C)c1snc2ncn(-c3ccc(Cl)c([S+]([O-])CC(F)(F)F)c3)c(=O)c12 (stereo not drawn) [Compound 118]	3.14	3.08	90%	90%	–
N#Cc1ccc(-n2cnc3sccc3c2=O)cc1[S+]([O-])CC(F)(F)F (stereo not drawn) [Compound 95]	1.89	1.87	–	–	efficacy in % (beetle larvae killed) [2]: 100%
N#Cc1cc(F)c(-n2cnc3sccc3c2=O)cc1SCC(F)(F)F [Compound 82]	2.70	2.67	–	–	efficacy in % (beetle larvae killed) [2]: 100%
CCn1ncc2ncn(-c3cc(SCC(F)(F)F)c(C)cc3F)c(=O)c21 [Compound 159]	–	–	100%	100%	–
Cc1ccc(-n2cnc3cnn(C)c3c2=O)cc1[S+]([O-])CC(F)(F)F (stereo not drawn) [Compound 142]	–	–	100%	100%	–
Cc1cc(F)c(-n2cnc3onc(C)c3c2=O)cc1SCC(F)(F)F [Compound 194]	–	–	100%	90%	–
Cc1nc2cnn(C)c2c(=O)n1-c1cc([S+]([O-])CC(F)(F)F)c(Cl)cc1F (stereo not drawn) [Compound 155]	–	–	100%	90%	–
CCn1ncc2nc(C)n(-c3cc([S+]([O-])CC(F)(F)F)c(C)cc3F)c(=O)c21 (stereo not drawn) [Compound 164]	–	–	100%	100%	–
Cc1ccc(-n2cnc3sccc3c2=O)cc1[S+]([O-])CC(F)(F)F (stereo not drawn) [Compound 86, 3-{4-Methyl-3-[(2,2,2-trifluoroethyl)sulphinyl]phenyl}thieno[2,3-d]pyrimidin-4(3H)-one]	–	–	90%	90%	chromatographic logP ([1]; pH 2.7, acidic range, pH 2.7, 0.1% aqueous formic acid / acetonitrile, read-out: log P[a]): 1.94; chromatographic logP ([1]; pH 2.7, method [a], read-out: logP[a]): 1.94; chromatographic logP ([1]; pH 7.8, method [b], read-out: logP[b]): 1.93; chromatographic logP ([1]; pH 7.8, neutral range, pH 7.8, 0.001 molar aqueous ammonium bicarbonate / acetonitrile, read-out: log P[b]): 1.93
Cc1cc(F)c(-n2c(C)nc3snc(C)c3c2=O)cc1SCC(F)(F)F [Compound 209]	–	–	100%	90%	–
CCc1nc2cnn(C)c2c(=O)n1-c1cc([S+]([O-])CC(F)(F)F)c(C)cc1F (stereo not drawn) [Compound 147]	–	–	100%	100%	–
CCc1nsc2ncn(-c3cc(SCC(F)(F)F)c(C)cc3F)c(=O)c12 [Compound 201]	–	–	–	90%	efficacy in % (beetle larvae killed) [2]: 100%
Cc1cc(F)c(-n2c(C)nc3ncsc3c2=O)cc1[S+]([O-])CC(F)(F)F (stereo not drawn) [Compound 188]	–	–	90%	100%	–
CCn1ncc2ncn(-c3cc([S+]([O-])CC(F)(F)F)c(C)cc3F)c(=O)c21 (stereo not drawn) [Compound 163]	–	–	90%	100%	–
Cc1cc(F)c(-n2nnc3c(C)nsc3c2=O)cc1[S+]([O-])CC(F)(F)F (stereo not drawn) [Compound 183]	–	–	–	90%	efficacy in % (beetle larvae killed) [2]: 100%
Cc1cc(F)c(-n2cnc3onc(C(F)(F)F)c3c2=O)cc1[S+]([O-])CC(F)(F)F (stereo not drawn) [Compound 199]	–	–	100%	90%	–
N#Cc1ccc(-n2cnc3sccc3c2=O)cc1[S+]([O-])CC(F)(F)F (stereo not drawn) [Compound 88]	2.07	2.00	–	–	efficacy in % (beetle larvae killed) [2]: 100%

Compound	logP[a] [1]	logP[b] [1]	nematicidal effect in % (formation of galls) [3]	efficacy in % (spider mites killed) ([4]; application rate 500 g/ha)	further results
Cc1ccc(-n2cnc3nn(C)c(C)c3c2=O)cc1[S+]([O-])CC(F)(F)F (stereo not drawn) [Compound 47]	1.54	1.51	80%	90%	–
O=c1c2sccc2ncn1-c1ccc(Cl)c([S+]([O-])CC(F)(F)F)c1 (stereo not drawn) [Compound 106]	2.07	2.03	–	–	efficacy in % (beetle larvae killed) [2]: 83%
CCn1ncc2nc(C)n(-c3cc(SCC(F)(F)F)c(C)cc3F)c(=O)c21 [Compound 160]	–	–	100%	100%	–
Cc1cc(F)c(-n2cnc3onc(C)c3c2=O)cc1[S+]([O-])CC(F)(F)F (stereo not drawn) [Compound 196]	–	–	100%	–	efficacy in % (spider mites killed) ([4]; application rate 100 g/ha): 90%
Cc1cc(F)c(-n2cnc3onc(C(C)C)c3c2=O)cc1[S+]([O-])CC(F)(F)F (stereo not drawn) [Compound 200]	–	–	100%	100%	–
Cc1nc2cnn(C)c2c(=O)n1-c1cc(SCC(F)(F)F)c(Cl)cc1F [Compound 149]	–	–	100%	100%	–
Cc1cc(Cl)c(-n2nnc3cnn(C)c3c2=O)cc1[S+]([O-])CC(F)(F)F (stereo not drawn) [Compound 153]	–	–	100%	90%	–
Cc1c2c(=O)n(-c3ccc(C#N)c([S+]([O-])CC(F)(F)F)c3)cnc2nn1C (racemic) [Compound 51]	1.52	1.50	–	–	efficacy in % (beetle larvae killed) [2]: 100%
Cc1cc(F)c(-n2cnc3ncsc3c2=O)cc1SCC(F)(F)F [Compound 78]	2.51	2.48	90%	90%	–
Cc1cc(F)c(-n2cnc3csnc3c2=O)cc1[S+]([O-])CC(F)(F)F (stereo not drawn) [Compound 212]	–	–	100%	90%	–
Cc1nc2c(=O)n(-c3cc(SCC(F)(F)F)c(C)cc3C)cnc2s1 [Compound 72]	2.92	2.86	90%	90%	–
Cc1cc(F)c(-n2c(C)nc3cnn(CC4CC4)c3c2=O)cc1[S+]([O-])CC(F)(F)F (stereo not drawn) [Compound 170]	–	–	100%	100%	–
Cc1cc(F)c(-n2cnc3cnn(CC4CC4)c3c2=O)cc1[S+]([O-])CC(F)(F)F (stereo not drawn) [Compound 169]	–	–	100%	100%	–
Cc1cc(Cl)c(-n2c(C)nc3cnn(C)c3c2=O)cc1[S+]([O-])CC(F)(F)F (stereo not drawn) [Compound 157]	–	–	90%	100%	–
Cc1nc2c(=O)n(-c3cc([S+]([O-])CC(F)(F)F)c(C)cc3C)cnc2s1 (stereo not drawn) [Compound 75]	1.84	1.81	80%	90%	–
Cc1cc(F)c(-n2c(C)nc3cnn(C(C)C)c3c2=O)cc1SCC(F)(F)F [Compound 162]	–	–	90%	100%	–
Cc1cc(F)c(-n2cnc3scnc3c2=O)cc1SCC(F)(F)F [Compound 60]	2.54	2.52	–	–	efficacy in % (beetle larvae killed) [2]: 100%
Cn1ncc2ncn(-c3cc(SCC(F)(F)F)c(Cl)cc3F)c(=O)c21 [Compound 148]	–	–	100%	100%	–
Cc1cc(F)c(-n2cnc3cnn(CC4CC4)c3c2=O)cc1SCC(F)(F)F [Compound 167]	–	–	100%	100%	–
CCc1noc2ncn(-c3cc(SCC(F)(F)F)c(C)cc3F)c(=O)c12 [Compound 195]	–	–	90%	90%	–
N#Cc1ccc(-n2cnc3ccsc3c2=O)cc1[S+]([O-])CC(F)(F)F (stereo not drawn) [Compound 105]	1.79	1.75	–	–	efficacy in % (beetle larvae killed) [2]: 100%
